Measured values from PubChem BioAssay AID1963872 (Molecular Pharmacology Branch, DTP, NCI, 2024).

Tested on: KRAS patient-derived spheroids with HUVEC/MSC, viability
Assay: Anticancer human tumor 519858-162-T-J1-PDC patient-derived colon adenocarcinoma cell line growth inhibition [KRAS2]
Settings: for IC50: curve of first compound; for viability, T/C: stronger effect = lower value
Procedure, shortened: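 Combination screen of spheroid viability in tumor-cell co-cultures with endothelial (HUVEC) and mesenchymal stem cell stroma. Each agent was tested in half-log dilutions, topping at clinical Cmax or at 10 microM without a known Cmax.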

[1] = second compound 0.1 µM, first compound 0.0316 µM
[2] = second compound 0.1 µM, first compound 0.1 µM
[3] = second compound 0.1 µM, first compound 0.316 µM
[4] = second compound 0.1 µM, first compound 1 µM
[5] = second compound 0.1 µM, first compound 3.16 µM
[6] = second compound 0.1 µM, first compound 10 µM
[7] = second compound 0.316 µM, first compound 0.0316 µM
[8] = second compound 0.316 µM, first compound 0.1 µM
[9] = second compound 0.316 µM, first compound 0.316 µM
[10] = second compound 0.316 µM, first compound 1 µM
[11] = second compound 0.316 µM, first compound 3.16 µM
[12] = second compound 0.316 µM, first compound 10 µM
[13] = second compound 1 µM, first compound 0.0316 µM
[14] = second compound 1 µM, first compound 0.1 µM
[15] = second compound 1 µM, first compound 0.316 µM
[16] = second compound 1 µM, first compound 1 µM
[17] = second compound 1 µM, first compound 3.16 µM
[18] = second compound 1 µM, first compound 10 µM
[19] = second compound 3.16 µM, first compound 0.0316 µM
[20] = second compound 3.16 µM, first compound 0.1 µM
[21] = second compound 3.16 µM, first compound 0.316 µM
[22] = second compound 3.16 µM, first compound 1 µM
[23] = second compound 3.16 µM, first compound 3.16 µM
[24] = second compound 3.16 µM, first compound 10 µM
[25] = second compound 10 µM, first compound 0.0316 µM
[26] = second compound 10 µM, first compound 0.1 µM
[27] = second compound 10 µM, first compound 0.316 µM
[28] = second compound 10 µM, first compound 1 µM
[29] = second compound 10 µM, first compound 3.16 µM
[30] = second compound 10 µM, first compound 10 µM
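Also: compound exposure lasted seven days before readout.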
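For viability, T/C in this document: 100% = DMSO vehicle control viability.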

| SMILES | IC50 (second compound 0.1 µM) [nM] | IC50 (second compound 0.316 µM) [nM] | IC50 (second compound 1 µM) [nM] | IC50 (second compound 3.16 µM) [nM] | IC50 (second compound 10 µM) [nM] | viability, T/C [1] [%] | viability, T/C [2] [%] | viability, T/C [3] [%] | viability, T/C [4] [%] | viability, T/C [5] [%] | viability, T/C [6] [%] | viability, T/C [7] [%] | viability, T/C [8] [%] | viability, T/C [9] [%] | viability, T/C [10] [%] | viability, T/C [11] [%] | viability, T/C [12] [%] | viability, T/C [13] [%] | viability, T/C [14] [%] | viability, T/C [15] [%] | further results |
| --- | --- | --- | --- | --- | --- | --- | --- | --- | --- | --- | --- | --- | --- | --- | --- | --- | --- | --- | --- | --- | --- |
| CCNC(=O)CC1N=C(c2ccc(Cl)cc2)c2cc(OC)ccc2-n2c(C)nnc21 (stereo not given) + CNCc1ccccc1-c1csc(C(C)Nc2nc(C)nc3cc(OC)c(OC)cc23)c1 | 2250 | 1370 | 510 | 73.9 | < 31.6 | 82.5 | 109 | 87.2 | 67.5 | 43.8 | 19.8 | 81.5 | 74.5 | 65.6 | 52.4 | 41.2 | 25.6 | 61.1 | 59 | 54.2 | viability, T/C [16]: 44%; viability, T/C [17]: 34.9%; viability, T/C [18]: 24.2%; viability, T/C [19]: 51.9%; viability, T/C [20]: 54%; viability, T/C [21]: 37.5%; viability, T/C [22]: 29.1%; viability, T/C [23]: 23.9%; viability, T/C [24]: 9.53%; viability, T/C [25]: 0.36%; viability, T/C [26]: 1.18%; viability, T/C [27]: 0.49%; viability, T/C [28]: 0.46%; viability, T/C [29]: 0.69%; viability, T/C [30]: 0.69% |
| Cn1nccc1Nc1nccc(-c2cc3c(s2)C(C)(C)N(CCN2CCOCC2)C3=O)n1 + CNCc1ccccc1-c1csc(C(C)Nc2nc(C)nc3cc(OC)c(OC)cc23)c1 | 3240 | 4470 | 1090 | < 31.6 | < 31.6 | 102 | 90.2 | 74.2 | 63 | 55.7 | 33.5 | 90.3 | 77.5 | 68.2 | 78.5 | 49.2 | 39.6 | 79.5 | 71 | 74.3 | viability, T/C [16]: 50.6%; viability, T/C [17]: 31.9%; viability, T/C [18]: 25.9%; viability, T/C [19]: 38.9%; viability, T/C [20]: 48%; viability, T/C [21]: 29.8%; viability, T/C [22]: 36.6%; viability, T/C [23]: 20.8%; viability, T/C [24]: 21.2%; viability, T/C [25]: 2.36%; viability, T/C [26]: 0.52%; viability, T/C [27]: 0.35%; viability, T/C [28]: 0.39%; viability, T/C [29]: 0.71%; viability, T/C [30]: 0.65% |
